Results published in ChEMBL document CHEMBL3259654, “Dihydrothiophene-condensed chromones from a marine-derived fungus Penicillium oxalicum and their structure-bioactivity relationship” (Bioorg Med Chem Lett, 2014).

What was measured:
[1] = Cytotoxicity against human BGC823 cells by MTT assay; assay type: functional, cell-based; settings: BGC-823
[2] = system: MOLT-4; assay: Cytotoxicity against human MOLT4 cells by MTT assay; assay type: functional, cell-based
[3] = Retention time of the compound by HPLC analysis; assay type: physicochemical
[4] = system: NCI-H1975; assay: Cytotoxicity against human NCI-H1975 cells by MTT assay; assay type: functional, cell-based
[5] = system: U-937; assay: Cytotoxicity against human U937 cells by MTT assay; assay type: functional, cell-based
[6] = system: K562; assay: Cytotoxicity against human K562 cells by MTT assay; assay type: functional, cell-based
[7] = system: MCF7; assay: Cytotoxicity against human MCF7 cells by MTT assay; assay type: functional, cell-based
[8] = system: HL-60; assay: Cytotoxicity against human HL60 cells by MTT assay; assay type: functional, cell-based
[9] = Cytotoxicity against human HuH7 cells by MTT assay; assay type: functional, cell-based; settings: Huh-7

Compound | IC50 [1] | IC50 [2] | Retention_time [3] | IC50 [4] | IC50 [5] | IC50 [6] | IC50 [7] | IC50 [8] | IC50 [9]
COC(=O)[C@@](O)(C[C@@H](O)C(=O)O)[C@@H]1Cc2c(oc3cc(C)cc(O)c3c2=O)S1 | 10.1 µM | 5.74 µM | 23.144 min | – | – | – | – | – | –
COC(=O)C[C@](O)(C(=O)OC)[C@@H]1Cc2c(oc3cc(C)cc(O)c3c2=O)S1 | 1.96 µM | 1.36 µM | – | 5.45 µM | 4.16 µM | 8.8 µM | 4.32 µM | 2.96 µM | 6.33 µM
COC(=O)[C@H](O)C[C@](O)(C(=O)OC)[C@@H]1Cc2c(oc3cc(C)cc(O)c3c2=O)S1 | 4.89 µM | 0.3 µM | 24.796 min | 10.4 µM | 2.35 µM | 4.53 µM | 11.3 µM | 2.55 µM | 9.49 µM
COC(=O)[C@H](O)C[C@](O)(C(=O)OC)[C@H]1Cc2c(oc3cc(C)cc(O)c3c2=O)S1 | – | 2.3 µM | – | – | 5 µM | – | – | 6.41 µM | –
COC(=O)[C@@H](C[C@](O)(C(=O)OC)[C@@H]1Cc2c(oc3cc(C)cc(O)c3c2=O)S1)OC(=O)[C@](OC)(c1ccccc1)C(F)(F)F | 8.82 µM | 5.89 µM | – | – | 9.85 µM | – | – | – | –
COC(=O)[C@@H](C[C@](O)(C(=O)OC)[C@@H]1Cc2c(oc3cc(C)cc(O)c3c2=O)S1)OC(=O)[C@@](OC)(c1ccccc1)C(F)(F)F | 5.53 µM | 4.81 µM | – | – | 9.04 µM | 1.34 µM | – | 7.54 µM | –
COC(=O)[C@@H](C[C@](O)(C(=O)OC)[C@@H]1Cc2c(oc3cc(C)cc(O)c3c2=O)S1)OC(=O)c1ccc([N+](=O)[O-])cc1 | 8.01 µM | 3.66 µM | – | 6.97 µM | 6.37 µM | 9.68 µM | 7.37 µM | 3.96 µM | 6 µM
COC(=O)[C@@H](C[C@](O)(C(=O)OC)[C@@H]1Cc2c(oc3cc(C)cc(OC(=O)c4ccc([N+](=O)[O-])cc4)c3c2=O)S1)OC(=O)c1ccc([N+](=O)[O-])cc1 | 4.49 µM | 2.96 µM | – | – | 6.34 µM | 1.04 µM | 6.05 µM | 3.09 µM | 8.77 µM
COC(=O)[C@@H](C[C@](O)(C(=O)OC)[C@@H]1Cc2c(oc3cc(C)cc(O)c3c2=O)S1)OC(=O)c1cc(C(F)(F)F)cc(C(F)(F)F)c1 | 3.95 µM | 3.02 µM | – | 2.33 µM | 4.06 µM | 6.9 µM | 6.94 µM | 3.79 µM | –
COC(=O)[C@@H](C[C@](OC(=O)c1cc(C(F)(F)F)cc(C(F)(F)F)c1)(C(=O)OC)[C@@H]1Cc2c(oc3cc(C)cc(OC(=O)c4cc(C(F)(F)F)cc(C(F)(F)F)c4)c3c2=O)S1)OC(=O)c1cc(C(F)(F)F)cc(C(F)(F)F)c1 | – | – | – | – | 7.2 µM | – | – | – | –
COC(=O)[C@@H](C[C@](O)(C(=O)OC)[C@@H]1Cc2c(oc3cc(C)cc(OC(=O)c4ccccc4)c3c2=O)S1)OC(=O)c1ccccc1 | – | 3.99 µM | – | – | – | – | – | 4.46 µM | –
COC(=O)[C@@H](C[C@](O)(C(=O)OC)[C@H]1Cc2c(oc3cc(C)cc(O)c3c2=O)S1)OC(=O)[C@@](OC)(c1ccccc1)C(F)(F)F | 8.81 µM | 6.03 µM | – | – | – | – | – | 9.14 µM | –
